Measured values taken from patent US8211462B2, “Hot-melt TTS for administering rotigotine” (UCB Pharma GmbH, priority 2002, dated 2012).

How the values were obtained:
[1] = Solubility of rotigotine in hydrophobic adhesives; type: physicochemical
[2] = Active-substance stability: rotigotine purity in the cement matrix by gradient HPLC; type: physicochemical; conditions: hot-melt processing
Protocol: The cement matrix was mixed with 0.1% methane sulfonic acid, agitated, centrifuged and measured. (b3) Analytics of the Active-Substance Stability: […] Column: LiChrosphere 100 CN, 125 mm×4.6 mm, 5 μm. Flow rate: 1.0 mL, column temperature: 40° C. UV detection (2 wavelengths: 272 and 220 nm).

CCCN(CCc1cccs1)[C@H]1CCc2c(O)cccc2C1 [rotigotine, (−)-5,6,7,8-tetrahydro-6-[propyl[2-(2-thienyl)ethyl-)amino]-1-naphthol]
solubility of rotigotine in hydrophobic adhesives such as silicones [1]: soluble in trace amounts only
remains stable under short-term heating to temperatures up to [2]: at least 160 °C
